# Results reported in PMC3700073, “Synthesis and Biological Activity of New Thiopyrano[2,3-d]thiazoles Containing a Naphthoquinone Moiety” (Scientia Pharmaceutica, 2013).
# Where two headings read alike, the source gives them in different places.
# Key:
# BT-549 (breast cancer) = assay: NCI five-dose assay; assay type: cell-based; conditions: Homo sapiens, BT-549, BT-549, breast cancer
# NCI-H460 (NSCL cancer) = assay: NCI five-dose assay; assay type: cell-based; conditions: Homo sapiens
# TK-10 (renal cancer) = assay: NCI five-dose assay; assay type: cell-based; conditions: Homo sapiens, TK-10, TK-10, renal cancer
# SR (leukemia) = assay: NCI five-dose assay; assay type: cell-based; conditions: Homo sapiens
# MCF-7 (breast cancer) = assay: NCI five-dose assay; assay type: cell-based; conditions: Homo sapiens, MCF7, MCF-7, breast cancer
# SNB-19 (CNS cancer) = assay: NCI five-dose assay; assay type: cell-based; conditions: Homo sapiens, SNB-19, SNB-19, CNS cancer
# CAKI-1 (renal cancer) = assay: NCI five-dose assay; assay type: cell-based; conditions: Homo sapiens, CAKI-1, CAKI-1, renal cancer
# SF-539 (CNS cancer) = assay: NCI five-dose assay; assay type: cell-based; conditions: Homo sapiens, SF-539, SF-539, CNS cancer
# RXF-393 (renal cancer) = assay: NCI five-dose assay; assay type: cell-based; conditions: Homo sapiens
# RPMI-8226 (leukemia) = assay: NCI five-dose assay; assay type: cell-based; conditions: Homo sapiens, RPMI-8226, RPMI-8226, leukemia
# SW-620 (colon cancer) = assay: NCI five-dose assay; assay type: cell-based; conditions: Homo sapiens, SW-620, SW-620, colon cancer
# HCC-2998 (colon cancer) = assay: NCI five-dose assay; assay type: cell-based; conditions: Homo sapiens, HCC 2998, HCC-2998, colon cancer
# COLO 205 (colon cancer) = assay: NCI five-dose assay; assay type: cell-based; conditions: Homo sapiens, COLO 205, COLO 205, colon cancer
# SNB-75 (CNS cancer) = assay: NCI five-dose assay; assay type: cell-based; conditions: Homo sapiens, SNB-75, SNB-75, CNS cancer
# UACC-257 (melanoma) = assay: NCI five-dose assay; assay type: cell-based, human; conditions: for GI50: Homo sapiens, UACC-257, UACC-257, melanoma
# SN12C (renal cancer) = assay: NCI five-dose assay; assay type: cell-based; conditions: Homo sapiens
# SF-295 (CNS cancer) [1] = assay: NCI five-dose assay; assay type: cell-based; conditions: Homo sapiens, SF-295, SF-295, CNS cancer
# HS 578T (breast cancer) = assay: NCI five-dose assay; assay type: cell-based, human; conditions: for GI50: Homo sapiens, Hs-578T, HS 578T, breast cancer
# SK-OV-3 (ovarian cancer) = assay: NCI five-dose assay; assay type: cell-based; conditions: Homo sapiens, SK-OV-3, SK-OV-3, ovarian cancer
# IGROV-1 (ovarian cancer) = assay: NCI five-dose assay; assay type: cell-based; conditions: Homo sapiens
# 60 cancer cell lines [2] = assay: cells; conditions: Homo sapiens
# HCT-15 (colon cancer) = assay: NCI five-dose assay; assay type: cell-based; conditions: Homo sapiens, HCT-15, HCT-15, colon cancer
# [3] = tested on: Mycobacterium tuberculosis H37Rv strain (ATCC 27294); assay: Antimycobacterial pre-screening at 6.25 μg/mL (BACTEC 460 radiometric system); assay type: cell-based; conditions: M. tuberculosis H37Rv; for inhibition at 6.25 µg/mL: 6.25 μg/mL; for MIC90: pre-screening, read-out: Estimation of MIC90
# NCI-H23 (NSCL cancer) = assay: NCI five-dose assay; assay type: cell-based; conditions: Homo sapiens
# NCI-H322M (NSCL cancer) = assay: NCI five-dose assay; assay type: cell-based; conditions: Homo sapiens
# 60 cancer cell lines [4] = conditions: over the cell line panel
# HT29 (colon cancer) = assay: NCI five-dose assay; assay type: cell-based; conditions: Homo sapiens, HT-29, HT29, colon cancer
# M14 (melanoma) = assay: NCI single-concentration screen; assay type: cell-based, human; conditions: 10^−5 M
# SK-MEL-5 (melanoma) = assay: NCI single-concentration screen; assay type: cell-based, human; conditions: 10^−5 M
# 60 cancer cell lines [5] = assay: NCI single-concentration screen, 60 cancer cell lines; assay type: cell-based, human; conditions: single concentration 10^−5 M
# MALME-3M (melanoma) = assay: NCI single-concentration screen; assay type: cell-based, human; conditions: 10^−5 M
# [6] = tested on: MDA-MB-435 (breast cancer); assay: NCI single-concentration screen; assay type: cell-based, human; conditions: 10^−5 M
# [7] = tested on: MDA-MB-468 (breast cancer); assay: NCI five-dose assay; assay type: cell-based; conditions: Homo sapiens, repeated testing
# SF-295 (CNS cancer) [8] = assay: NCI single-concentration screen; assay type: cell-based, human; conditions: 10^−5 M
# (melanoma) = assay: NCI single-concentration screen; assay type: cell-based, human; conditions: SK-MEL-25 (melanoma), 10^−5 M
# [9] = read-out: GI50 MG_MID, over the cell line panel
# [10] = read-out: GI50 Range (min – max), over the cell line panel
# [11] = read-out: LC50 MG_MID, over the cell line panel
# [12] = read-out: LC50 Range (min – max), over the cell line panel
smiles,measurement,setting,value
"COc1cc(C2C3=C(Sc4[nH]c(=O)sc42)C(=O)c2ccccc2C3=O)ccc1OCc1ccccc1 (stereo not shown) [Compound 4e, 11-[4-(Benzyloxy)-3-methoxyphenyl]-3,11-dihydro-2H-benzo[6,7]thiochromeno[2,3-d]-[1,3]thiazole-2,5,10-trione]",GI50,BT-549 (breast cancer),13.4 µM
same,GI50,NCI-H460 (NSCL cancer),5.39 µM
same,GI50,TK-10 (renal cancer),29.7 µM
same,GI50,SR (leukemia),13.8 µM
same,GI50,MCF-7 (breast cancer),12.9 µM
same,GI50,SNB-19 (CNS cancer),11.3 µM
same,GI50,CAKI-1 (renal cancer),17.4 µM
same,GI50,SF-539 (CNS cancer),16.7 µM
same,GI50,RXF-393 (renal cancer),6.98 µM
same,GI50,RPMI-8226 (leukemia),14.5 µM
same,GI50,SW-620 (colon cancer),22.7 µM
same,GI50,HCC-2998 (colon cancer),16.6 µM
same,GI50,COLO 205 (colon cancer),10.3 µM
same,GI50,SNB-75 (CNS cancer),7.76 µM
same,GI50,UACC-257 (melanoma),11.3 µM
same,GI50,SN12C (renal cancer),15.3 µM
same,GI50,SF-295 (CNS cancer) [1],5.78 µM
same,GI50,HS 578T (breast cancer),4.52 µM
same,GI50,SK-OV-3 (ovarian cancer),31.7 µM
same,GI50,IGROV-1 (ovarian cancer),15.4 µM
same,GI50,60 cancer cell lines [2]; [9],12 µM
same,GI50,60 cancer cell lines [2]; [10],2.62 to 32.6 µM
same,CC50,60 cancer cell lines [2]; [11],85.1 µM
same,CC50,60 cancer cell lines [2]; [12],26.3 to 98.7 µM
same,GI50,HCT-15 (colon cancer),11.5 µM
same,inhibition at 6.25 µg/mL,[3],15%
same,MIC90,[3],> 6.25 mg/L
same,GI50,NCI-H23 (NSCL cancer),3.99 µM
same,GI50,NCI-H322M (NSCL cancer),10.9 µM
same,TGI MG_MID,60 cancer cell lines [4],40.74 µM
same,GI50,HT29 (colon cancer),11.2 µM
"COc1ccc(C2C3=C(Sc4[nH]c(=O)sc42)C(=O)c2ccccc2C3=O)cc1OC (stereo not shown) [Compound 4f, 11-(3,4-Dimethoxyphenyl)-3,11-dihydro-2H-benzo[6,7]thiochromeno[2,3-d][1,3]thiazole-2,5,10-trione]",GI50,BT-549 (breast cancer),2.84 µM
same,GI50,NCI-H460 (NSCL cancer),2.18 µM
same,GI50,TK-10 (renal cancer),17.6 µM
same,Growth % of the most sensitive cell line,M14 (melanoma),−80.36%
same,GI50,SR (leukemia),3.96 µM
same,Growth % of the most sensitive cell line,SK-MEL-5 (melanoma),−96.40%
same,Mean growth %,60 cancer cell lines [5],1.77%
same,GI50,MCF-7 (breast cancer),2.25 µM
same,GI50,SNB-19 (CNS cancer),4.49 µM
same,GI50,CAKI-1 (renal cancer),11.2 µM
same,GI50,SF-539 (CNS cancer),3.17 µM
same,GI50,RXF-393 (renal cancer),2.27 µM
same,GI50,RPMI-8226 (leukemia),4.64 µM
same,GI50,SW-620 (colon cancer),3.96 µM
same,GI50,COLO 205 (colon cancer),3.37 µM
same,GI50,SNB-75 (CNS cancer),6.64 µM
same,Growth % of the most sensitive cell line,MALME-3M (melanoma),−66.70%
same,GI50,UACC-257 (melanoma),6.13 µM
same,GI50,SN12C (renal cancer),3.68 µM
same,GI50,SF-295 (CNS cancer) [1],3.77 µM
same,GI50,HS 578T (breast cancer),3.71 µM
same,GI50,SK-OV-3 (ovarian cancer),13.6 µM
same,GI50,IGROV-1 (ovarian cancer),3.35 µM
same,GI50,60 cancer cell lines [2]; [9],4.19 µM
same,GI50,60 cancer cell lines [2]; [10],1.26 to 17.7 µM
same,CC50,60 cancer cell lines [2]; [11],47.9 µM
same,CC50,60 cancer cell lines [2]; [12],5.34 to 93 µM
same,GI50,HCT-15 (colon cancer),3.51 µM
same,inhibition at 6.25 µg/mL,[3],0%
same,MIC90,[3],> 6.25 mg/L
same,GI50,NCI-H23 (NSCL cancer),1.68 µM
same,GI50,NCI-H322M (NSCL cancer),3.78 µM
same,TGI MG_MID,60 cancer cell lines [4],14.79 µM
same,GI50,HT29 (colon cancer),3.15 µM
"COc1cc(C2C3=C(Sc4[nH]c(=O)sc42)C(=O)c2ccccc2C3=O)ccc1O (stereo not shown) [Compound 4i, 11-(4-Hydroxy-3-methoxyphenyl)-3,11-dihydro-2H-benzo[6,7]thiochromeno[2,3-d]-[1,3]thiazole-2,5,10-trione]",GI50,BT-549 (breast cancer),2.74 µM
same,GI50,BT-549 (breast cancer); repeated testing,0.92 µM
same,Growth % of the most sensitive cell line,[6],−48.22%
same,GI50,NCI-H460 (NSCL cancer),1.92 µM
same,GI50,NCI-H460 (NSCL cancer); repeated testing,1.66 µM
same,GI50,TK-10 (renal cancer),5.74 µM
same,GI50,TK-10 (renal cancer); repeated testing,2.16 µM
same,GI50,SR (leukemia),41.4 µM
same,GI50,SR (leukemia); repeated testing,1.96 µM
same,Mean growth %,60 cancer cell lines [5],17.75%
same,GI50,MCF-7 (breast cancer),1.07 µM
same,GI50,MCF-7 (breast cancer); repeated testing,2.26 µM
same,GI50,SNB-19 (CNS cancer),2.41 µM
same,GI50,SNB-19 (CNS cancer); repeated testing,2.85 µM
same,GI50,CAKI-1 (renal cancer),1.5 µM
same,GI50,CAKI-1 (renal cancer); repeated testing,2.92 µM
same,GI50,SF-539 (CNS cancer),3.26 µM
same,GI50,SF-539 (CNS cancer); repeated testing,3.46 µM
same,GI50,RXF-393 (renal cancer),2.52 µM
same,GI50,RPMI-8226 (leukemia),1.93 µM
same,GI50,RPMI-8226 (leukemia); repeated testing,1.33 µM
same,GI50,SW-620 (colon cancer),2.82 µM
same,GI50,SW-620 (colon cancer); repeated testing,3.23 µM
same,GI50,HCC-2998 (colon cancer),3.77 µM
same,GI50,HCC-2998 (colon cancer); repeated testing,3.24 µM
same,GI50,[7],1.75 µM
same,GI50,COLO 205 (colon cancer),2.08 µM
same,GI50,COLO 205 (colon cancer); repeated testing,1.68 µM
same,GI50,SNB-75 (CNS cancer),1.26 µM
same,GI50,SNB-75 (CNS cancer); repeated testing,0.67 µM
same,GI50,UACC-257 (melanoma),1.31 µM
same,GI50,UACC-257 (melanoma); repeated testing,0.22 µM
same,TGI of the most sensitive cell line,"UACC-257 (melanoma); UACC-257 /melanoma/, repeated testing",(0.22 / 1.82) μM
same,GI50,SN12C (renal cancer); repeated testing,3.02 µM
same,Growth % of the most sensitive cell line,SF-295 (CNS cancer) [8],−50.25%
same,GI50,SF-295 (CNS cancer) [1],1.71 µM
same,GI50,SF-295 (CNS cancer) [1]; repeated testing,1.14 µM
same,TGI of the most sensitive cell line,HS 578T (breast cancer); HS 578T /breast cancer/,0.27 / 1.09 μM
same,GI50,HS 578T (breast cancer),0.27 µM
same,GI50,HS 578T (breast cancer); repeated testing,0.65 µM
same,GI50,SK-OV-3 (ovarian cancer),8.28 µM
same,GI50,SK-OV-3 (ovarian cancer); repeated testing,5.72 µM
same,GI50,IGROV-1 (ovarian cancer),2.48 µM
same,GI50,60 cancer cell lines [2]; [9],1.95 µM
same,GI50,"60 cancer cell lines [2]; read-out: GI50 MG_MID, over the cell line panel, repeated testing",1.7 µM
same,GI50,60 cancer cell lines [2]; [10],0.16 to 41.4 µM
same,GI50,"60 cancer cell lines [2]; read-out: GI50 Range (min – max), over the cell line panel, repeated testing",0.22 to 5.72 µM
same,CC50,60 cancer cell lines [2]; [11],42.7 µM
same,CC50,"60 cancer cell lines [2]; read-out: LC50 MG_MID, over the cell line panel, repeated testing",38 µM
same,CC50,60 cancer cell lines [2]; [12],4.14 to 92.4 µM
same,CC50,"60 cancer cell lines [2]; read-out: LC50 Range (min – max), over the cell line panel, repeated testing",4.93 to 86.6 µM
same,GI50,HCT-15 (colon cancer),2.07 µM
same,GI50,HCT-15 (colon cancer); repeated testing,1.74 µM
same,Growth % of the most sensitive cell line,(melanoma),−74.12%
same,GI50,NCI-H23 (NSCL cancer),0.95 µM
same,GI50,NCI-H23 (NSCL cancer); repeated testing,0.41 µM
same,GI50,NCI-H322M (NSCL cancer),2.05 µM
same,GI50,NCI-H322M (NSCL cancer); repeated testing,1.86 µM
same,TGI MG_MID,60 cancer cell lines [4],10.96 µM
same,TGI MG_MID,60 cancer cell lines [4]; repeated testing,(8.51) μM
same,GI50,HT29 (colon cancer),2.35 µM
same,GI50,HT29 (colon cancer); repeated testing,2.02 µM
